Columns and labels:
[1] = tested on: UACC-62 (melanoma cell line); test: NCI-60 five-dose assay; settings: UACC-62
[2] = tested on: COLO 205 (colon cancer cell line); test: NCI-60 five-dose assay; assay type: cell-based, human; settings: five doses (10^−4–10^−8 M), read-out: Growth inhibition 50 (GI50)
[3] = tested on: SK-MEL-28 (melanoma cell line); test: NCI-60 five-dose assay; settings: SK-MEL-28
[4] = tested on: NCI cancer panel (all cell lines); test: NCI-60 five-dose assay, overall mean graph midpoint (MG_MID); assay type: cell-based, human; settings: MG_MID over all panels; read-out: GI50 mean graph midpoint (MG_MID)
Description: (§1) Due to these preliminary results, six compounds, 1, 5, 10, 11, 17, and 20, were selected for the five-dose screen NCI-programme against the same panel of tumour cell lines.
(§2) Next, a mean graph midpoint (MG_MD) was calculated for compounds 1, 5, 10, 11, 17, and 20 and reported as waterfall graphs GI50, TGI, and LC50 in the Supplementary Materials (Figures S69–S86). In Table 9, we reported the average GI50 for the nine-cancer panels, underlining both the activity and selectivity for compounds 1, 10, 11, and 20.

[5] = tested on: SK-MEL-2 (melanoma cell line); test: NCI-60 five-dose assay; settings: SK-MEL-2
Vero TMPRSS cells = settings: read-out: SARS‐CoV‐2/Vero TMPRSS CC50; preliminary screening (50, 5, 0.5 μM), Vero TMPRSS
[6] = tested on: HT29 (colon cancer cell line); test: NCI-60 five-dose assay; assay type: cell-based, human; settings: five doses (10^−4–10^−8 M), read-out: Growth inhibition 50 (GI50)
[7] = tested on: LOX IMVI (melanoma cell line); test: NCI-60 five-dose assay
[8] = tested on: HCT-116 (colon cancer cell line); test: NCI-60 five-dose assay; assay type: cell-based, human; settings: five doses (10^−4–10^−8 M), read-out: Growth inhibition 50 (GI50)
Renal Cancer panel = test: NCI-60 five-dose assay, panel-level GI50 (mean graph midpoint); assay type: cell-based, human; settings: Renal Cancer panel average; read-out: GI50 mean graph midpoint (MG_MID)
Description: as §1, §2

CNS Cancer panel = test: as above; assay type: cell-based, human; settings: CNS Cancer panel average; read-out: GI50 mean graph midpoint (MG_MID)
Description: as §1, §2

Ovarian Cancer panel = test: as above; assay type: cell-based, human; settings: Ovarian Cancer panel average; read-out: GI50 mean graph midpoint (MG_MID)
Description: as §1, §2

[9] = tested on: Non-Small Cell Lung Cancer panel; test: as above; assay type: cell-based, human; settings: Non-Small Cell Lung Cancer panel average; read-out: GI50 mean graph midpoint (MG_MID)
Description: as §1, §2

Breast Cancer panel = test: as above; assay type: cell-based, human; settings: Breast Cancer panel average; read-out: GI50 mean graph midpoint (MG_MID)
Description: as §1, §2

Prostate Cancer panel = test: as above; assay type: cell-based, human; settings: Prostate Cancer panel average; read-out: GI50 mean graph midpoint (MG_MID)
Description: as §1, §2

[10] = tested on: HL-60(TB) (leukemia cell line); test: NCI-60 five-dose assay; assay type: cell-based, human; settings: five doses (10^−4–10^−8 M), read-out: Growth inhibition 50 (GI50)
MCF-7 (breast cancer) = test: NCI-60 five-dose assay; assay type: cell-based, human; settings: five-dose screen
From the text: (§3) We first evaluated the cytotoxic activity of tricyclic-pyrrole carboxamides 1–20 using the NCI-60 cell line panel, representing nine different human cancers: leukemia, melanoma, and cancers of the lung, colon, central nervous system (CNS), ovary, kidney, prostate, and breast (the one-dose graph for compounds 1–20 is reported in Supplementary Materials, Figures S43–S62). Compounds 1, 5, 10, 11, 17, and 20 satisfied pre-determined threshold inhibition criteria in a minimum number of cell lines; therefore, they were also tested in the full five-dose assay (Figures S63–S68 in the Supplementary Materials).
as §1

[11] = tested on: HOP-92 (non-small cell lung cancer); test: NCI-60 five-dose assay; assay type: cell-based, human; settings: five-dose screen
From the text: as §3, §1

Leukemia panel = test: NCI-60 five-dose assay, panel-level GI50 (mean graph midpoint, range); assay type: cell-based, human; settings: Leukemia panel average; read-out: GI50 mean graph midpoint (MG_MID)
Description: as §1, §2

Melanoma panel = test: as above; assay type: cell-based, human; settings: Melanoma panel average; read-out: GI50 mean graph midpoint (MG_MID)
Description: as §1, §2

Colon Cancer panel = test: as above; assay type: cell-based, human; settings: Colon Cancer panel average; read-out: GI50 mean graph midpoint (MG_MID)
Description: as §1, §2

[12] = tested on: MDA-MB-435 (melanoma cell line); test: NCI-60 five-dose assay; settings: MDA-MB-435
[13] = tested on: HCC-2998 (colon cancer cell line); test: NCI-60 five-dose assay; assay type: cell-based, human; settings: five doses (10^−4–10^−8 M), read-out: Growth inhibition 50 (GI50)
MDCK cells = test: Cytotoxicity on uninfected MDCK cells (WST-8, crystal violet); settings: read-out: IAV/MDCK CC50; preliminary screening (50, 5, 0.5 μM), MDCK
[14] = read-out: Growth inhibition 50 (GI50), five doses (10^−4–10^−8 M)
[15] = read-out: LC50 (molar concentration leading to 50% net cell death)

## N-(3-(4-Benzylpiperazin-1-yl)propyl)-2-chloro-1,4,5,6-tetrahydrobenzo[6,7]cyclohepta[1,2-b]pyrrole-2-carboxamide [Compound 11]
[1]
  TGI (molar concentration giving total growth inhibition): 9.77 µM
[1]; [14]
  GI50: 2.55 µM
[1]; [15]
  CC50: 31.6 µM
[2]
  GI50: 1.65 µM
[3]
  TGI (molar concentration giving total growth inhibition): 3.31 µM
[3]; [14]
  GI50: 1.75 µM
[3]; [15]
  CC50: 6.16 µM
[4]
  GI50: 4.47 µM
[5]
  TGI (molar concentration giving total growth inhibition): 20.89 µM
[5]; [14]
  GI50: 7.85 µM
[5]; [15]
  CC50: 47.9 µM
Vero TMPRSS cells
  CC50: 15.4 µM
[6]
  GI50: 2.6 µM
[7]
  TGI (molar concentration giving total growth inhibition): 5.13 µM
[7]; [14]
  GI50: 2.16 µM
[7]; [15]
  CC50: 15.8 µM
[8]
  GI50: 3.37 µM
Renal Cancer panel
  GI50: 5.89 µM
CNS Cancer panel
  GI50: 5.25 µM
Ovarian Cancer panel
  GI50: 7.94 µM
[9]
  GI50: 7.08 µM
Breast Cancer panel
  GI50: 3.47 µM
Prostate Cancer panel
  GI50: 5.13 µM
[10]
  GI50: 2.92 µM
MCF-7 (breast cancer)
  GI50: 2.77 µM
[11]
  GI50: 2.72 µM
Leukemia panel
  GI50: 2.88 µM
Melanoma panel
  GI50: 2.34 µM
Colon Cancer panel
  GI50: 2.81 µM
[12]
  TGI (molar concentration giving total growth inhibition): 7.41 µM
[12]; [14]
  GI50: 2.59 µM
[12]; [15]
  CC50: 30.2 µM
[13]
  GI50: 1.73 µM
MDCK cells
  CC50: 5.38 µM

— publication PMC12566046, “Arylpiperazinyl-Benzocycloheptapyrrole-Carboxamides Endowed with Dual Anticancer and Antiviral Activities” (Molecules, 2025)
